Assay results reported in ChEMBL document CHEMBL5335767, “Synthesis and study of new siderophore analog-ciprofloxacin conjugates with antibiotic activities against Pseudomonas aeruginosa and Burkholderia spp” (Eur J Med Chem, 2023).
In brackets after ≈: the same amount, converted by molar mass.

What was measured:
[1] = test system: Burkholderia thailandensis; assay: Antibacterial activity against Burkholderia thailandensis E264 under succinate minimum medium by CLSI protocol based microdilution method; format: functional
[2] = test system: Burkholderia thailandensis; assay: Antibacterial activity against Burkholderia thailandensis E264TS32C12 under succinate minimum medium by CLSI protocol based microdilution method; format: functional
[3] = test system: Burkholderia pseudomallei; assay: Antibacterial activity against Burkholderia pseudomallei BPS2020IRBA001 under succinate minimum medium by CLSI protocol based microdilution method; format: functional
[4] = test system: Burkholderia pseudomallei; assay: Antibacterial activity against Burkholderia pseudomallei K96243 under 1 uM FeCl3 medium by CLSI protocol based microdilution method; format: functional
[5] = test system: Burkholderia pseudomallei; assay: Antibacterial activity against Burkholderia pseudomallei K96243 under succinate minimum medium after 48 hrs by CLSI protocol based microdilution method; format: functional
[6] = test system: Burkholderia pseudomallei; assay: Antibacterial activity against Burkholderia pseudomallei BPS2020IRBA005 under 1 uM FeCl3 medium after 48 hrs by CLSI protocol based microdilution method; format: functional
[7] = test system: Pseudomonas aeruginosa; assay: Antibacterial activity against Pseudomonas aeruginosa PAD07 under 1 uM FeCl3 medium by CLSI protocol based microdilution method; format: functional
[8] = test system: Pseudomonas aeruginosa; assay: Antibacterial activity against Pseudomonas aeruginosa AM85 under succinate minimum medium by CLSI protocol based microdilution method; format: functional
[9] = test system: Burkholderia pseudomallei; assay: Antibacterial activity against Burkholderia pseudomallei BPS2020IRBA001 under 1 uM FeCl3 medium by CLSI protocol based microdilution method; format: functional
[10] = test system: Pseudomonas aeruginosa; assay: Antibacterial activity against Pseudomonas aeruginosa PAO1 under succinate minimum medium by CLSI protocol based microdilution method; format: functional
[11] = Stability in aqueous solution after 1 months; format: physicochemical; settings: buffer, 730 h
[12] = test system: Burkholderia pseudomallei; assay: Antibacterial activity against Burkholderia pseudomallei BPS2020IRBA005 under succinate minimum medium after 48 hrs by CLSI protocol based microdilution method; format: functional
[13] = test system: Burkholderia thailandensis; assay: Antibacterial activity against Burkholderia thailandensis E264TS32C47 under 1 uM FeCl3 medium by CLSI protocol based microdilution method; format: functional
[14] = test system: Burkholderia thailandensis; assay: Antibacterial activity against Burkholderia thailandensis E264TS32C47 under muller hinton medium by CLSI protocol based microdilution method; format: functional
[15] = test system: Burkholderia thailandensis; assay: Antibacterial activity against Burkholderia thailandensis E264TS32C10 under succinate minimum medium after 48 hrs by CLSI protocol based microdilution method; format: functional
[16] = test system: Burkholderia thailandensis; assay: Antibacterial activity against Burkholderia thailandensis E264TS32C47 under succinate minimum medium by CLSI protocol based microdilution method; format: functional
[17] = test system: Burkholderia pseudomallei; assay: Antibacterial activity against Burkholderia pseudomallei BPS2020IRBA003 under 1 uM FeCl3 medium by CLSI protocol based microdilution method; format: functional
[18] = test system: Pseudomonas aeruginosa; assay: Antibacterial activity against Pseudomonas aeruginosa PAD07 under muller hinton medium by CLSI protocol based microdilution method; format: functional
[19] = test system: Burkholderia thailandensis; assay: Antibacterial activity against Burkholderia thailandensis E264TS32C10 under 1 uM FeCl3 medium by CLSI protocol based microdilution method; format: functional
[20] = test system: Burkholderia pseudomallei; assay: Antibacterial activity against Burkholderia pseudomallei BPS2020IRBA002 under 1 uM FeCl3 medium by CLSI protocol based microdilution method; format: functional
[21] = test system: HepG2; assay: Cytotoxicity against human HepG2 cells at 28 ug/ml after 48 hrs by CellTiter-Glo luminescent cell viability assay; format: toxicity, cell-based; settings: hepg2, 48 h, dose 28 µg/ml
[22] = test system: Lipopolysaccharide (LPS); assay: Binding affinity to Pseudomonas aeruginosa lipopolysaccharide assessed as maximum insertion pressure
[23] = test system: Burkholderia pseudomallei; assay: Antibacterial activity against Burkholderia pseudomallei BPS2020IRBA003 under muller hinton medium by CLSI protocol based microdilution method; format: functional
[24] = test system: Burkholderia thailandensis; assay: Antibacterial activity against Burkholderia thailandensis E264 under muller hinton medium by CLSI protocol based microdilution method; format: functional
[25] = test system: Pseudomonas aeruginosa; assay: Antibacterial activity against Pseudomonas aeruginosa PAO1 under muller hinton medium by CLSI protocol based microdilution method; format: functional
[26] = test system: Burkholderia thailandensis; assay: Antibacterial activity against Burkholderia thailandensis E264TS32C12 under 1 uM FeCl3 medium by CLSI protocol based microdilution method; format: functional
[27] = test system: Burkholderia pseudomallei; assay: Antibacterial activity against Burkholderia pseudomallei BPS2020IRBA002 under succinate minimum medium after 48 hrs by CLSI protocol based microdilution method; format: functional
[28] = test system: Pseudomonas aeruginosa; assay: Antibacterial activity against Pseudomonas aeruginosa AM85 under 1 uM FeCl3 medium by CLSI protocol based microdilution method; format: functional
[29] = test system: Burkholderia thailandensis; assay: Antibacterial activity against Burkholderia thailandensis E264 under 1 uM FeCl3 medium by CLSI protocol based microdilution method; format: functional
[30] = test system: Burkholderia thailandensis; assay: Antibacterial activity against Burkholderia thailandensis E264TS32C10 under muller hinton medium by CLSI protocol based microdilution method; format: functional
[31] = test system: Burkholderia pseudomallei; assay: Antibacterial activity against Burkholderia pseudomallei BPS2020IRBA004 under muller hinton medium by CLSI protocol based microdilution method; format: functional
[32] = test system: Pseudomonas aeruginosa; assay: Antibacterial activity against Pseudomonas aeruginosa AM85 under muller hinton medium by CLSI protocol based microdilution method; format: functional
[33] = test system: Lipid bilayer; assay: Binding affinity to bacterial inner membrane mimic PE/PG/CL/PC (60:20:10:10) assessed as maximum insertion pressure
[34] = test system: Burkholderia pseudomallei; assay: Antibacterial activity against Burkholderia pseudomallei BPS2020IRBA001 under muller hinton medium by CLSI protocol based microdilution method; format: functional
[35] = test system: Burkholderia pseudomallei; assay: Antibacterial activity against Burkholderia pseudomallei BPS2020IRBA005 under muller hinton medium by CLSI protocol based microdilution method; format: functional
[36] = test system: Burkholderia thailandensis; assay: Antibacterial activity against Burkholderia thailandensis E264TS32C12 under muller hinton medium by CLSI protocol based microdilution method; format: functional
[37] = test system: Burkholderia pseudomallei; assay: Antibacterial activity against Burkholderia pseudomallei BPS2020IRBA003 under succinate minimum medium by CLSI protocol based microdilution method; format: functional
[38] = test system: Pseudomonas aeruginosa; assay: Antibacterial activity against Pseudomonas aeruginosa PAO1 under 1 uM FeCl3 medium by CLSI protocol based microdilution method; format: functional
[39] = test system: Pseudomonas aeruginosa; assay: Antibacterial activity against Pseudomonas aeruginosa PAD07 under succinate minimum medium by CLSI protocol based microdilution method; format: functional
[40] = test system: Burkholderia pseudomallei; assay: Antibacterial activity against Burkholderia pseudomallei K96243 under muller hinton medium by CLSI protocol based microdilution method; format: functional
[41] = test system: Burkholderia pseudomallei; assay: Antibacterial activity against Burkholderia pseudomallei BPS2020IRBA002 under muller hinton medium by CLSI protocol based microdilution method; format: functional

CC(OC(=O)c1cccc(O)c1O)OC(=O)N1CCN(c2cc3c(cc2F)c(=O)c(C(=O)O)cn3C2CC2)CC1 (stereo unspecified) gave an MIC [1] of 8 µg/mL (≈ 14.4 µM), an MIC [2] of 4 µg/mL (≈ 7.2 µM) and an MIC [3] of 2 µg/mL (≈ 3.6 µM). It also gave an MIC [4] of 4 µg/mL (≈ 7.2 µM), an MIC [5] of 2 µg/mL (≈ 3.6 µM) and an MIC [6] of 16 µg/mL (≈ 28.8 µM). For the same compound, the MIC [7] was 2 µg/mL (≈ 3.6 µM), the MIC [8] was greater than 128 µg/mL and the MIC [9] was 32 µg/mL (≈ 57.6 µM). The MIC [10] was 1 µg/mL (≈ 1.8 µM), the Stability [11] was “Stable” and the MIC [12] was 8 µg/mL (≈ 14.4 µM). It also gave an MIC [13] of 8 µg/mL (≈ 14.4 µM), an MIC [14] of 32 µg/mL (≈ 57.6 µM) and an MIC [15] of 32 µg/mL (≈ 57.6 µM). It also gave an MIC [16] of 4 µg/mL (≈ 7.2 µM), an MIC [17] of 16 µg/mL (≈ 28.8 µM) and an MIC [18] of 0.25 µg/mL (≈ 0.45 µM). The MIC [19] was 32 µg/mL (≈ 57.6 µM), the MIC [20] was 8 µg/mL (≈ 14.4 µM) and the Activity [21] was “Non-Toxic”. For the same compound, the Activity [22] was 30 mN/meter, the MIC [23] was 32 µg/mL (≈ 57.6 µM) and the MIC [24] was 32 µg/mL (≈ 57.6 µM). It also gave an MIC [25] of 1 µg/mL (≈ 1.8 µM), an MIC [26] of 16 µg/mL (≈ 28.8 µM) and an MIC [27] of 8 µg/mL (≈ 14.4 µM). It also gave an MIC [28] greater than 128 µg/mL, an MIC [29] of 8 µg/mL (≈ 14.4 µM) and an MIC [30] greater than 128 µg/mL. The MIC [31] was 32 µg/mL (≈ 57.6 µM), the MIC [32] was greater than 128 µg/mL and the Activity [33] was 44 mN/meter. It also gave an MIC [34] of 128 µg/mL (≈ 230 µM), an MIC [35] of 128 µg/mL (≈ 230 µM) and an MIC [36] of 64 µg/mL (≈ 115 µM). For the same compound, the MIC [37] was 8 µg/mL (≈ 14.4 µM), the MIC [38] was 1 µg/mL (≈ 1.8 µM) and the MIC [39] was 0.25 µg/mL (≈ 0.45 µM). The MIC [40] was 8 µg/mL (≈ 14.4 µM) and the MIC [41] was 32 µg/mL (≈ 57.6 µM).
